The source made the active and inactive calls. The calls are words filed in the database; no cut-off is given here.
How the values were obtained:
[1] = target: Cholinesterase (Equus caballus) (UniProt P81908); test: Inhibition of equine serum BChE at 50 uM using butyrylthiocholine iodide as substrate preincubated with enzyme for 20 mins followed by substrate addition and measured after 20 mins by Ellman's method; assay type: cell-free; details: time 40.0 min
Acetylcholinesterase = Acetylcholinesterase (Electrophorus electricus, UniProt O42275); test: Inhibition of electric eel AChE using acetylthiocholine iodide as substrate preincubated with enzyme for 20 mins followed by substrate addition and measured after 20 mins by Ellman's method
Chain of Acetylcholinesterase (O42275 whole entry): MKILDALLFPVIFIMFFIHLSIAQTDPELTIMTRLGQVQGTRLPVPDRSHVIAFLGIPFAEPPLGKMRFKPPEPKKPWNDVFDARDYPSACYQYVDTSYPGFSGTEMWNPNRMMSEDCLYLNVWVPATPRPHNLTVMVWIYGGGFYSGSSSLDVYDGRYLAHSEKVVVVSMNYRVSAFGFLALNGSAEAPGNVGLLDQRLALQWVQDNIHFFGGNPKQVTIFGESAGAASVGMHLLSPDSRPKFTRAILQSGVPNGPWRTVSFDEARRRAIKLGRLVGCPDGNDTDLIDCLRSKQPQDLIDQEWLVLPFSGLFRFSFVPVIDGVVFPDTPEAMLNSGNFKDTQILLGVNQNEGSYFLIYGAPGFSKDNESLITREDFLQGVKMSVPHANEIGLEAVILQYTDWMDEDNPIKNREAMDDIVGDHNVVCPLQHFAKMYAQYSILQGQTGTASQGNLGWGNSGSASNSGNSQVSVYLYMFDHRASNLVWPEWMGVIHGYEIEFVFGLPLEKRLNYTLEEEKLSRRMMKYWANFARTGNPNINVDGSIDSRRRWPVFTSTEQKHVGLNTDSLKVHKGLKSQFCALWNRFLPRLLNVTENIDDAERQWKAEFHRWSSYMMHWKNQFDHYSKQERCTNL

Cholinesterase = Cholinesterase (Equus caballus, UniProt P81908); test: Inhibition of equine serum BChE using butyrylthiocholine iodide as substrate preincubated with enzyme for 20 mins followed by substrate addition and measured after 20 mins by Ellman's method; assay type: cell-free
Chain of Cholinesterase (P81908 whole entry): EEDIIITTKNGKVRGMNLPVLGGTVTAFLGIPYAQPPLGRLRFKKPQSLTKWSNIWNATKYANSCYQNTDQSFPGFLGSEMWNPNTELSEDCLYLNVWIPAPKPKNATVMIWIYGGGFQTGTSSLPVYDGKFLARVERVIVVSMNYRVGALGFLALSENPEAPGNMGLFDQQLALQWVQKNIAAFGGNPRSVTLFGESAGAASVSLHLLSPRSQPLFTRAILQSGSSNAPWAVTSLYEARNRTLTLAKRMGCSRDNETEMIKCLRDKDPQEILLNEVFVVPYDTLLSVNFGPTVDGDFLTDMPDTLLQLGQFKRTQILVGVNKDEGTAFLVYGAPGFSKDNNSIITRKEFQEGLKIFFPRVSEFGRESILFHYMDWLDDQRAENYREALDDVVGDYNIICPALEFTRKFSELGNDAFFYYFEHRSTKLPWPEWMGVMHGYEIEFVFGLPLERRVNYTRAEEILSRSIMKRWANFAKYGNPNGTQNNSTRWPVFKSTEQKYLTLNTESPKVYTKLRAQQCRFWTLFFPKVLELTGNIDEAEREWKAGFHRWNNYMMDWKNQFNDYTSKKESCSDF

[2] = Selectivity index, ratio of IC50 for equine serum BChE to IC50 for electric eel AChE
[3] = target: T1, Glycogen synthase kinase-3 beta (Homo sapiens, UniProt P49841); test: Inhibition of GSK3-beta (unknown origin) at 10 uM incubated for 60 mins by ATP-Glo luminescent assay
Target sequence in this assay (P49841 whole entry, looked up): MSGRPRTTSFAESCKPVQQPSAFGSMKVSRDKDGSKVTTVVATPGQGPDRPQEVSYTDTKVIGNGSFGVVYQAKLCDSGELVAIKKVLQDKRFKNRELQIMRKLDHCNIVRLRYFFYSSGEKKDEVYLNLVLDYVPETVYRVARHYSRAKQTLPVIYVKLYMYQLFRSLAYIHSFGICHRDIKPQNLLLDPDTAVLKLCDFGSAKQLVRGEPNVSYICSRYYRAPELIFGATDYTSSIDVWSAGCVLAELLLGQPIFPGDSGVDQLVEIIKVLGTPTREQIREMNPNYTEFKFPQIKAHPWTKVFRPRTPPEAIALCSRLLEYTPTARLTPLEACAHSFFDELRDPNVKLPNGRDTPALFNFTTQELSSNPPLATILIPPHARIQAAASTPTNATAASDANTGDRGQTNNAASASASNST

[4] = target: T1, Glycogen synthase kinase-3 beta; test: Inhibition of GSK3-beta (unknown origin) incubated for 60 mins by ATP-Glo luminescent assay
Target sequence in this assay (P49841 whole entry): as the sequence (P49841 whole entry, looked up) above

[5] = target: Dual specificity tyrosine-phosphorylation-regulated kinase 1A (Homo sapiens) (UniProt Q13627); test: Inhibition of DYRK1A (unknown origin) at 0.5 to 1 uM; details: dose 0.5-1 µM
[6] = target: Dual specificity tyrosine-phosphorylation-regulated kinase 1B (Homo sapiens) (UniProt Q9Y463); test: Inhibition of DYRK1B (unknown origin) at 0.5 to 1 uM; details: dose 0.5-1 µM
Chain of Dual specificity tyrosine-phosphorylation-regulated kinase 1B (Homo sapiens) (Q9Y463 whole entry, looked up): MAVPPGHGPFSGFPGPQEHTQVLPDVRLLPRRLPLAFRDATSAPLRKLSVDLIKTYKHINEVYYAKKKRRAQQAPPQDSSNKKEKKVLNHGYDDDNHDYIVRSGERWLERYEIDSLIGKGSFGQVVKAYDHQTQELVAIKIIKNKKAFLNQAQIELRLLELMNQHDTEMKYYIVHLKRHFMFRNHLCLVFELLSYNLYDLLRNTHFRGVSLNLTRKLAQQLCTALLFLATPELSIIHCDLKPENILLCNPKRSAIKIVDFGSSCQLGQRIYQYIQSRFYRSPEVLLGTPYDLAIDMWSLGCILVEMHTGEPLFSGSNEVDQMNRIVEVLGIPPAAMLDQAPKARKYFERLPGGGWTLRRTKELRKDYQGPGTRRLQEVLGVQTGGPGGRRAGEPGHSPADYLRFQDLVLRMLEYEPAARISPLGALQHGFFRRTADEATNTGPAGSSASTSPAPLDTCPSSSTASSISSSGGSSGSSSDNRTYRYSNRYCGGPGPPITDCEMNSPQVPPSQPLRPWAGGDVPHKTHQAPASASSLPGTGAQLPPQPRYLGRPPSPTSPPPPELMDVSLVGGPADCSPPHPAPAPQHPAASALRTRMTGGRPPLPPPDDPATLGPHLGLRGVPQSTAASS

SH-SY5Y [7] = test: Cytotoxicity against human SH-SY5Y cells assessed as reduction in cell viability at 1 to 20 uM incubated for 48 hrs by MTT assay; assay type: toxicity, cell-based; details: dose 1-20 µM
HepG2 = test: Cytotoxicity against human HepG2 cells assessed as reduction in cell viability at 1 to 20 uM incubated for 48 hrs by MTT assay; assay type: toxicity, cell-based; details: hepg2, 48 h, dose 1-20 µM
L02 [8] = test: Cytotoxicity against human HL7702 cells assessed as reduction in cell viability at 1 to 20 uM incubated for 48 hrs by MTT assay; assay type: toxicity, cell-based; details: l02, 48 h, dose 1-20 µM
HEK-293T = test: Cytotoxicity against human HEK-293T cells assessed as reduction in cell viability at 1 to 20 uM incubated for 48 hrs by MTT assay; assay type: toxicity, cell-based; details: dose 1-20 µM
[9] = Acute toxicity in C57BL/6 mouse assessed as effect on body weight at 1000 to 1500 mg/kg measured after 14 days; assay type: organism-based; details: in vivo, 336 h, dose 1000-1500 mg/kg, time 14 day
[10] = target: T1, Glycogen synthase kinase-3 beta; test: Inhibition of GSK3-beta in human HEK293T cells harboring tau P301L mutant assessed as inhibition of tau hyperphosphorylation at Ser396 residue measured after 48 hrs by western blot analysis; assay type: cell-based; details: dose 2.5-10 µM, DDE = dose-dependent effect
Target sequence in this assay (P49841 whole entry, looked up): as the sequence (P49841 whole entry, looked up) above

[11] = target: Glycogen synthase kinase-3 alpha (Homo sapiens) (UniProt P49840); test: Inhibition of GSK3-alpha (unknown origin) at 0.5 to 1 uM; details: dose 0.5-1 µM
Chain of Glycogen synthase kinase-3 alpha (Homo sapiens) (P49840 2-483 limits assumed): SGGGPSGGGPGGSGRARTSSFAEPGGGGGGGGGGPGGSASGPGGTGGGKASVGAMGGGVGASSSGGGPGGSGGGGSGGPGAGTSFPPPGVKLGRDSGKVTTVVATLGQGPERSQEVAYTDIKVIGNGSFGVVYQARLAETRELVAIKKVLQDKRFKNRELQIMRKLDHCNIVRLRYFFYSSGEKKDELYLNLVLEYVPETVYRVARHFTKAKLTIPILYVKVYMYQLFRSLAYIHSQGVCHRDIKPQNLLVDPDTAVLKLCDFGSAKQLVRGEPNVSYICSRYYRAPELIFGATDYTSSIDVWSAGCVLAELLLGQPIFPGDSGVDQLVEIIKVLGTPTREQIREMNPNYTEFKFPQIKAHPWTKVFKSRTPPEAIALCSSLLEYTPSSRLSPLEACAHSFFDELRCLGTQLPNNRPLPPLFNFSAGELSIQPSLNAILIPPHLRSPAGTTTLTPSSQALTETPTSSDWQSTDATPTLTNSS

[12] = target: T1, Glycogen synthase kinase-3 beta; test: Inhibition of GSK3-beta in human HEK293T cells harboring tau P301L mutant assessed as reduction of NFT production measured after 24 hrs by fluorescence staining based analysis; assay type: cell-based; details: dose 2.5-10 µM, DDE = dose-dependent effect
Target sequence in this assay (P49841 whole entry, looked up): as the sequence (P49841 whole entry, looked up) above

[13] = target: Acetylcholinesterase (Electrophorus electricus) (UniProt O42275); test: Potency index, ratio of harmine IC50 to test compound IC50 for electric eel AChE
Chain of Acetylcholinesterase (Electrophorus electricus) (O42275 24-633 limits assumed): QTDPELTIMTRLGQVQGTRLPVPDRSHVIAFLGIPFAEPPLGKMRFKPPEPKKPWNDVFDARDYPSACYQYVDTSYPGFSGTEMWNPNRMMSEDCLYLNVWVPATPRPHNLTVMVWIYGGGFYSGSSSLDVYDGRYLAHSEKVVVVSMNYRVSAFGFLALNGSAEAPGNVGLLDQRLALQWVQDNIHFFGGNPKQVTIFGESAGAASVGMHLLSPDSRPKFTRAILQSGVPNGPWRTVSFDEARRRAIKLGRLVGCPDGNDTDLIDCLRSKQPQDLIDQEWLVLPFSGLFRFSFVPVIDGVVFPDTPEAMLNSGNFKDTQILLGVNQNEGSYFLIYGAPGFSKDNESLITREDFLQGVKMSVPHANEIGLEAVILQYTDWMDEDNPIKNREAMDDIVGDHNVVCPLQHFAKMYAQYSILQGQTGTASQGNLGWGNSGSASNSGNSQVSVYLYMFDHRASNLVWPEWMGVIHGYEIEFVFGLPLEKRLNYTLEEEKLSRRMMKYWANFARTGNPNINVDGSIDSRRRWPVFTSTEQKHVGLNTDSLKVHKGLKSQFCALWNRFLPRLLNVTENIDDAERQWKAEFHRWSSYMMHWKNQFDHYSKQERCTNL

[14] = target: T1, Glycogen synthase kinase-3 beta; test: Inhibition of GSK3-beta in human HEK293T cells harboring tau P301L mutant assessed as increase in GSK3-beta phosphorylation at Ser9 residue measured after 48 hrs by western blot analysis; assay type: cell-based; details: dose 2.5-10 µM, DDE = dose-dependent effect
Target sequence in this assay (P49841 whole entry, looked up): as the sequence (P49841 whole entry, looked up) above

SH-SY5Y [15] = test: Cytotoxicity against human SH-SY5Y cells assessed as reduction in cell viability at 10 uM incubated for 48 hrs by MTT assay; assay type: toxicity, cell-based
L02 [16] = test: Cytotoxicity against human HL7702 cells assessed as reduction in cell viability at 10 uM incubated for 48 hrs by MTT assay; assay type: toxicity, cell-based; details: l02, 48 h

Chain of Cholinesterase (Equus caballus) (P81908 whole entry): as the sequence (P81908 whole entry) above

| SMILES | inhibition [1] | IC50 (Acetylcholinesterase) | IC50 (Cholinesterase) | Ratio IC50 [2] | inhibition [3] | also measured |
| --- | --- | --- | --- | --- | --- | --- |
| O=C(NCCC1CCN(Cc2ccccc2F)CC1)c1ccc2c(c1)[nH]c1c(NC(=O)C3CC3)nccc12 | 63% | 0.27 µM | 20.8 µM | 77.1 | 60.8% | IC50 [4]: 6.78 µM; inhibition [5]: Active; inhibition [6]: Active; Activity (SH-SY5Y [7]): Non-Toxic; Activity (HepG2): Non-Toxic; Activity (L02 [8]): Non-Toxic; Activity (HEK-293T): Non-Toxic; Activity [9]: Non-Toxic; inhibition [10]: Dde; inhibition [11]: Active; inhibition [12]: Dde; Ratio IC50 [13]: 37; inhibition [14]: Dde |
| O=C(NCC1CCN(Cc2cccc([N+](=O)[O-])c2)CC1)c1ccc2c(c1)[nH]c1c(NC(=O)C3CC3)nccc12 | < 10% | 2.05 µM | > 50 µM | > 24.4 | 52.1% |  |
| O=C(NC1CCN(Cc2ccccc2)CC1)c1ccc2c(c1)[nH]c1c(NC(=O)C3CC3)nccc12 | 52.6% | 2.33 µM | 38.8 µM | 16.6 | 63.3% |  |
| O=C(NCCC1CCN(Cc2ccccc2)CC1)c1ccc2c(c1)[nH]c1c(NC(=O)C3CC3)nccc12 | 68.3% | 0.78 µM | 23.6 µM | 30.2 | -2.01% |  |
| O=C(NCCC1CCN(Cc2ccc(Cl)cc2)CC1)c1ccc2c(c1)[nH]c1c(NC(=O)C3CC3)nccc12 | < 10% | 14.9 µM | > 50 µM | > 3.35 | 84.3% | Activity (SH-SY5Y [15]): Toxic; Activity (L02 [16]): Toxic |
| O=C(NC1CCN(Cc2cccc(F)c2)CC1)c1ccc2c(c1)[nH]c1c(NC(=O)C3CC3)nccc12 | 30.8% | 2.22 µM | > 50 µM | > 22.5 | 79.8% |  |
| COc1ccc2c(c1)[nH]c1c(C)nccc12 [HARMINE] | 74.1% | 10.1 µM | 13.6 µM |  |  |  |
| Cc1ccc(CN2CCC(CCNC(=O)c3ccc4c(c3)[nH]c3c(NC(=O)C5CC5)nccc34)CC2)cc1 | 44.3% | 2.74 µM | > 50 µM | > 18.2 | 62.7% |  |
| O=C(NCC1CCN(Cc2c(Cl)cccc2Cl)CC1)c1ccc2c(c1)[nH]c1c(NC(=O)C3CC3)nccc12 | < 10% | 0.34 µM | > 50 µM | > 147 | 11.3% |  |
| O=C(NC1CCN(Cc2c(Cl)cccc2Cl)CC1)c1ccc2c(c1)[nH]c1c(NC(=O)C3CC3)nccc12 | < 10% | 2.01 µM | > 50 µM | > 24.9 | 21.9% |  |
| O=C(NCCC1CCN(Cc2cccc(F)c2)CC1)c1ccc2c(c1)[nH]c1c(NC(=O)C3CC3)nccc12 | 65.4% | 0.96 µM | 19.9 µM | > 50.1 | 47.8% |  |
| O=C(NCC1CCN(Cc2ccc(C(F)(F)F)cc2)CC1)c1ccc2c(c1)[nH]c1c(NC(=O)C3CC3)nccc12 | < 10% | 10.4 µM | > 50 µM | > 4.81 | 59.5% |  |
| O=C(NC1CCN(Cc2ccccc2F)CC1)c1ccc2c(c1)[nH]c1c(NC(=O)C3CC3)nccc12 | 30.8% | 2.64 µM | > 50 µM | > 18.9 | 84.6% |  |
| O=C(NC1CCN(Cc2cc(F)cc(F)c2)CC1)c1ccc2c(c1)[nH]c1c(NC(=O)C3CC3)nccc12 | < 10% | 33.5 µM | > 50 µM | > 1.49 | 41.9% |  |
| COC(=O)c1ccc2c(c1)[nH]c1c(NC(=O)C3CC3)nccc12 |  | > 20 µM | > 20 µM |  |  | IC50 [4]: 0.07 µM |
| O=C(NCC1CCN(Cc2cc(F)cc(F)c2)CC1)c1ccc2c(c1)[nH]c1c(NC(=O)C3CC3)nccc12 | 10.4% | 5.04 µM | > 50 µM | > 9.92 |  |  |
